For series [1], the system named is NIH-PPARγ cells. The conditions noted are these: at the concentrations used (pioglitazone 5 μM, BRL49653 1 μM).
Method: 48 hr after transfection viral supernatants were collected and NIH3T3 cells were infected at 50% confluence with equal titers of recombinant virus. The supernatants were applied to the cells in DMEM containing 10% cosmic calf serum (Hyclone) and 4 μg/ml of polybrene. 24 hr after infection, cells were split and plated in DMEM containing 10% calf serum and 2 μg/ml puromycin to select infected cells. NIH-3T3 cell lines infected with empty vector or with viral expression vectors containing wild type or mutant forms of PPARγ cDNA as well as HIB1B and 3T3-F442A cell lines were cultured in DMEM containing 10% cosmic calf serum.
The same number of NIH-PPARγ, NIH-vector or HIB1B cells were cultured either in the presence (+) or absence (−) of PPARγ ligands. Cell numbers were determined at the indicated time points. The effect of ligands on cell growth is represented as percentage decrease in cell numbers in the treated plates relative to untreated control plates.
Series [2] concerns NIH-PPARγ cells. Briefly: Adipocytic differentiation (percent lipid-containing cells) of NIH-PPARγ cells. Format: cell-based. The method, then:
(§1) BrdU labeling was performed using the labeling kit (Boehringer Mannheim) according to the manufacturers instructions.
(§2) Extent of adipocytic differentiation is indicated as the percentage of lipid-containing cells.

The test system of series [3] is LS857 cells. Briefly: Adipocyte differentiation of primary liposarcoma cells LS857. The series is classed as cell-based, human. On the procedure: (§3) Primary liposarcoma cells were isolated from selected freshly harvested tumors as described previously (Fletcher, J. A. et al. (1991) NEJM 324:436-443) and references therein. Primary cells were plated at a density of at least 2×10^5 cells/ml and cultured in 60 mm dishes in RPMI containing 15% Cosmic Calf Serum (Hyclone) and 5 μ/ml insulin. […] The NIH-PPARγ and NIH-vector cells were derived by retroviral infection as described (Tontonoz, P. et al., (1994) supra). Differentiated cells were stained for neutral lipid with Oil Red-O (Green, H. and Kehinde, O. (1974) Cell 1:113-116). BrdU labeling was performed using the labeling kit (Boehringer Mannheim) according to the manufacturers instructions.
Liposarcomas have presumably acquired one or more genetic defects that interferes with the course of normal adipocyte development (Crozat, A. et al., (1993) Nature 363:640-644; Fletcher, J. A. et al., (1991) supra). […]
When cultured in the presence of fetal bovine serum and insulin, conditions permissive for adipocyte differentiation, all three cell lines maintain a fibroblastic morphology. […] This experiment was performed at least twice with each cell strain with quantitatively and qualitatively similar results. […]

Series [4] relates to NIH-vector cells. Briefly: Adipocytic differentiation (percent lipid-containing cells) of NIH-vector cells. Conditions: for percent lipid-containing cells: NIH-vector, confluent cells, 7 days, 1 μM pioglitazone, 50 nM LG268. Format: cell-based. On the procedure:
as §3
We hypothesized that simultaneous exposure of competent cells to both PPARγ and R×R-specific ligands might provide a stronger adipogenic signal than a PPARγ ligand alone. The ability of the R×R-specific ligand LG268 to promote adipocyte differentiation was investigated using NIH-3T3 fibroblasts that express PPARγ from a retroviral vector (Tontonoz, P. et al. (1994) supra). We have previously shown that wild-type NIH-3T3 cells express R×Rα but not PPARγ. […] Similar results were obtained with the preadipocyte cell lines 3T3-L1 and 3T3-F442A which express both PPARγ and R×Rα (data not shown).
as §2

Series [5] deals with NIH-vector cells. Briefly: BrdU incorporation, NIH-vector cells. Format: cell-based. An excerpt:
(§4) […]. […] […].

Series [6] has as its system LM203 lieomyosarcoma cells. Briefly: Lipid accumulation in primary leiomyosarcoma cell line LM203 (control). Format: cell-based, human. Conditions: which do not express PPARγ.
Series [7] concerns human liposarcoma cells (LS 857). Briefly: BrdU labeling and lipid staining of LS857 liposarcoma cells after induced differentiation (growth arrest). The series is classed as cell-based.
The test system of series [8] is aP2 and adipsin. Briefly: Northern analysis of adipocyte-specific markers in LS857 liposarcoma cells. The series is classed as cell-based, human. Conditions: Northern blotting.
The subject of series [9] is 3T3-F442A preadipocytes. Briefly: BrdU incorporation, 3T3-F442A preadipocytes. The series is classed as cell-based.
Text: as §4

Series [10] relates to primary liposarcoma cells. Briefly: Adipocyte differentiation of primary cells isolated from three human liposarcomas (LS857, LS175, LS707). The conditions noted are these: 7 days (pioglitazone 10 μM). The series is classed as cell-based. On the procedure:
as §1
To address this possibility, primary cells isolated from three human liposarcomas were cultured in vitro (see Materials and Methods). Primary cell strains LS857 and LS175 were derived from well differentiated tumors and LS707 was derived from a myxoid tumor (see table 2). […] A primary leiomyosarcoma cell line LM203 was cultured as a control. To confirm that these cultures consisted of malignant tumor-derived cells, cytogenetic analysis was performed.

For series [11], the system named is NIH-PPARγ cells.
Method: BrdU incorporation experiment was performed as described in the protocol provided by the supplier (Boehringer Mannheim Biochemical). Briefly, cells grown on coverslips were labeled with 10 μM BrdU for 1 hr. Samples were washed and fixed with ethanol-glycine buffer and incubated with anti-BrdU monoclonal antibody. After incubation with anti-mouse-Ig-alkaline phosphatase followed by the substrate reaction, bound anti-BrdU antibody was visualized by light microscopy.
Cells undergoing DNA synthesis during exposure to BrdU were determined by immunohistochemical staining and considered as BrdU positive. The data represents the average of two independent experiments in which approximately 400 cells were counted per sample.
Series [12] relates to HIB1B cells. Briefly: BrdU incorporation, HIB1B cells. The series is classed as cell-based, mice.
Text: as §4

Series [13] relates to LS175 cells. Briefly: Adipocyte differentiation of primary liposarcoma cells LS175. The series is classed as cell-based, human. The conditions noted are these: 10 μM, 7 days.
Series [14] has as its system HIB1B cells. Briefly: Adipose cell tumors from HIB1B cells implanted in nude mice. Conditions: for Tumor volume (mean (SD)): 0.2% mixture with powder food. Format: in vivo. The method, then: HIB1B cells (2×10^6 cells/animal) were injected subcutaneously to the upper back of twenty four male nude mice (7 weeks NCR […]). Thirteen days after injection, mice were treated with troglitazone (0.2% mixture with powder food). The development of tumor volume (measured in mm^3) was determined at days 14, 19 and 26 after troglitazone treatment compared to untreated controls. Each point represents the mean±[…] (SD) from 12 mice (except the last point, where n=11) treated or untreated with troglitazone for the indicated time intervals. To evaluate changes in tumor size, mean (SD) from 11-12 cases for each group of animal were examined to ensure an 85% chance of detecting a statistically significant difference (assuming a 2-sided sample t-test). […] Points A-C and D-F represent untreated and troglitazone-treated animals, respectively. Each point represents the mean±standard deviation from 12 mice (except the last point, where n=11). Statistically significant decreases in tumor volume were detected in implanted mice treated with troglitazone compared to untreated controls. […] The tumor volume was determined after 14, 19 and 26 days of treatment. Volumes are indicated with and without outlier points in each group of animals. A comparison of the tumor volume by two-sided 2-sample t-test after 26 days of treatment indicates p=0.0019 (without outlier); p=0.037 (with outlier). To evaluate the tumor increase over time, repeated measures analysis of variance were determined, p=0.0014 without outlier; p=0.044 with outlier.

[15] abbreviates: LS857, pioglitazone withdrawn 48 hours, then BrdU 48 hours.

Each structure is given as a SMILES string. Where two headings read alike, the source gives them in different places.

The results in this text go back to patent publication US7635708B2, “Methods and pharmaceutical compositions for inhibiting tumor cell growth” (Dana-Farber Cancer Institute, priority 1996, dated 2009).

For the compound `CN(CCOc1ccc(CC2SC(=O)NC2=O)cc1)c1ccccn1` (stereo not shown) [BRL49653, rosiglitiazone], in [1], the cytotoxic effects entry is on record as “No obvious cytotoxic effects”.
As to `Cc1cc2c(cc1C1(c3ccc(C(=O)O)cn3)CC1)C(C)(C)CCC2(C)C` [LG268], the percent lipid-containing cells was 50-65% in series [2] (NIH-PPARγ, confluent cells, 7 days, 1 μM pioglitazone, 50 nM LG268) and 0% in [4]. The “stimulation of adipocyte differentiation” value in series [2] (confluent NIH-PPARγ cells, 7 days, 50 nM LG268, 1 μM pioglitazone) is “significant stimulation of adipocyte differentiation”. In [3] (50 nM LG268, 10 μM pioglitazone, alone or simultaneously), the “adipocyte differentiation of LS857 cells” value is on record as “significant degree of adipocyte differentiation”. Also, in [4] (NIH-vector cells), the “adipogenic effect on NIH-vector cells” value is recorded as “no effect”.
As for `CCc1ccc(CCOc2ccc(CC3SC(=O)NC3=O)cc2)nc1` (stereo not shown) [pioglitazone, 5-[4-[2-(5-ethyl-2-pyridyl)-ethoxy]benzyl]-2,4-thiazolidinedione], the “change of BrdU incorporation rate” value in series [5] (NIH-vector cells, 5 days of treatment) is “did not change”. Further, the BrdU positive % came to 43% in series [5] (NIH-vector, 5 μM pioglitazone for 5 days, BrdU pulse 1 hour); 14% in series [9] (3T3-F442A, 5 μM pioglitazone for 5 days, BrdU pulse 1 hour); 9% in [11]; 11% in series [12] (5 μM pioglitazone for 5 days, BrdU pulse 1 hour). Besides, the lipid accumulation result in series [6] is “No lipid accumulation”. Further, in series [7] (LS857, of those cells containing lipid), the “cells containing lipid that stain positive for BrdU” value is given as 2%. Moreover, in series [7] (setting [15]), the “cells containing visible cytoplasmic lipid” value was 35%. In [7] (setting [15]), the “cells stained positive for BrdU incorporation” value was 28%. The “induction of the mRNAs encoding aP2 and adipsin” value in series [8] is recorded as “induction of two markers of terminal adipocyte differentiation”. In series [9] (3T3-F442A preadipocytes, after 5 days of treatment), the “decrease in the BrdU incorporation rate” value stood at 80%. The “induction of differentiation (lipid accumulation, adipocyte morphology)” value in series [10] was “readily accumulated lipid and adopted a morphology characteristic of mature cultured adipocytes”. Also, the results for the percent lipid-containing cells in [2] and in series [4] were 60-70% and 0%, respectively. For the same compound, the “degree of morphologically recognizable differentiation” value in [3] (LS 857 cells, 10 μM, 7 days) is 40%; in series [13], 75%. The “decrease of BrdU incorporation into newly synthesized DNA” value in series [12] (after 5 days of treatment) is 85%.
Consider `Cc1c(C)c2c(c(C)c1O)CCC(C)(COc1ccc(CC3SC(=O)NC3=O)cc1)O2` (stereo not shown) [troglitazone, 5-[[4-[(3,4-dihydro-6-hydroxy-2,5,7,8-tetramethyl-2H-1-benzopyran-2-yl)methoxy]phenyl]methyl]-2,4-thiazolidinedione], for which the “size of adipose tumors in nude mice compared to untreated controls” value in [14] (14, 19 and 26 days of treatment) is “effective in reducing the size of adipose tumors”. Further, the “Tumor volume (mean (SD))” value in series [14] (14 days of treatment, w outlier) was 403(182) mm^3; in series [14] (14 days of treatment, w/o outlier), 361(110) mm^3; in series [14] (19 days of treatment, w outlier), 990(665) mm^3; in series [14] (19 days of treatment, w/o outlier), 830(389) mm^3; in [14] (26 days of treatment, w outlier) it was 2601(2270) mm^3; in series [14] (26 days of treatment, w/o outlier), 2032(1179) mm^3. Further, in series [10], the “induction of differentiation (lipid accumulation, adipocyte morphology)” value is reported as “Induction of differentiation was also observed”.
